Laboratory results as given in PubChem BioAssay (NCI).
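GI50 is the concentration that inhibits growth by half. The concentration for full growth arrest is given as TGI.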

Legend:
Assay in all cases: inhibition of tumour cell growth, NCI panel, 384-well format
[1] = test system: SNB-75 CNS
[2] = test system: HCT-15 colon
[3] = test system: HCC-2998 colon
[4] = test system: U251 glioblastoma
[5] = test system: HOP-62 NSCLC
[6] = test system: SN12C renal
[7] = test system: MALME-3M melanoma
[8] = test system: HL-60(TB) leukemia
[9] = test system: MDA-MB-468 breast
[10] = test system: MDA-MB-435 melanoma
[11] = test system: UACC-257 melanoma
[12] = test system: A549 NSCLC
[13] = test system: SK-OV-3 ovarian
[14] = test system: SK-MEL-2 melanoma
[15] = test system: OVCAR-8 ovarian
[16] = test system: TK-10 renal
[17] = test system: KM12 colon
[18] = test system: SF-539 CNS
[19] = test system: PC-3 prostate
[20] = test system: EKVX NSCLC
[21] = test system: SK-MEL-28 melanoma
[22] = test system: SF-295 CNS
[23] = test system: T-47D breast
[24] = test system: HT29 colon
[25] = test system: UACC-62 melanoma
[26] = test system: NCI-H460 NSCLC
[27] = test system: RPMI-8226 leukemia
[28] = test system: IGROV1 ovarian
[29] = test system: SW-620 colon
[30] = test system: COLO 205 colon
[31] = test system: BT-549 breast
[32] = test system: CAKI-1 renal
[33] = test system: SF-268 CNS
[34] = test system: M14 melanoma
[35] = test system: HOP-92 NSCLC
[36] = test system: SK-MEL-5 melanoma
[37] = test system: MOLT-4 leukemia
[38] = test system: ACHN renal
[39] = test system: NCI-H522 lung
[40] = test system: DU-145 prostate
[41] = test system: CCRF-CEM leukemia
[42] = test system: A498 renal
[43] = test system: OVCAR-4 ovarian
[44] = test system: NCI-H23 lung
[45] = test system: NCI/ADR-RES ovarian
[46] = test system: MCF7 breast
[47] = test system: HS 578T breast
[48] = test system: OVCAR-3 ovarian
[49] = test system: SR leukemia
[50] = test system: NCI-H322M lung
[51] = test system: MDA-MB-231 breast
[52] = test system: NCI-H226 lung
[53] = test system: 786-0 renal
[54] = test system: SNB-19 CNS
[55] = test system: RXF 393 renal
[56] = test system: OVCAR-5 ovarian

SMILES: CNC(=O)c1ccc2cc(C3(O)CCn4cncc43)ccc2c1 (configuration not stated)
- GI50 [1]: > 100 µM
- TGI [1]: > 100 µM
- GI50 [2]: > 100 µM
- TGI [2]: > 100 µM
- GI50 [3]: > 100 µM
- TGI [3]: > 100 µM
- GI50 [4]: > 100 µM
- TGI [4]: > 100 µM
- GI50 [5]: > 100 µM
- TGI [5]: > 100 µM
- GI50 [6]: > 100 µM
- TGI [6]: > 100 µM
- GI50 [7]: > 100 µM
- TGI [7]: > 100 µM
- GI50 [8]: > 100 µM
- TGI [8]: > 100 µM
- GI50 [9]: > 100 µM
- TGI [9]: > 100 µM
- GI50 [10]: > 100 µM
- TGI [10]: > 100 µM
- GI50 [11]: > 100 µM
- TGI [11]: > 100 µM
- GI50 [12]: > 100 µM
- TGI [12]: > 100 µM
- GI50 [13]: > 100 µM
- TGI [13]: > 100 µM
- GI50 [14]: > 100 µM
- TGI [14]: > 100 µM
- GI50 [15]: > 100 µM
- TGI [15]: > 100 µM
- GI50 [16]: > 100 µM
- TGI [16]: > 100 µM
- GI50 [17]: > 100 µM
- TGI [17]: > 100 µM
- GI50 [18]: > 100 µM
- TGI [18]: > 100 µM
- GI50 [19]: > 100 µM
- TGI [19]: > 100 µM
- GI50 [20]: > 100 µM
- TGI [20]: > 100 µM
- GI50 [21]: > 100 µM
- TGI [21]: > 100 µM
- GI50 [22]: > 100 µM
- TGI [22]: > 100 µM
- GI50 [23]: > 100 µM
- TGI [23]: > 100 µM
- GI50 [24]: > 100 µM
- TGI [24]: > 100 µM
- GI50 [25]: > 100 µM
- TGI [25]: > 100 µM
- GI50 [26]: > 100 µM
- TGI [26]: > 100 µM
- GI50 [27]: > 100 µM
- TGI [27]: > 100 µM
- GI50 [28]: > 100 µM
- TGI [28]: > 100 µM
- GI50 [29]: > 100 µM
- TGI [29]: > 100 µM
- GI50 [30]: > 100 µM
- TGI [30]: > 100 µM
- GI50 [31]: > 100 µM
- TGI [31]: > 100 µM
- GI50 [32]: > 100 µM
- TGI [32]: > 100 µM
- GI50 [33]: > 100 µM
- TGI [33]: > 100 µM
- GI50 [34]: > 100 µM
- TGI [34]: > 100 µM
- GI50 [35]: > 100 µM
- TGI [35]: > 100 µM
- GI50 [36]: > 100 µM
- TGI [36]: > 100 µM
- GI50 [37]: > 100 µM
- TGI [37]: > 100 µM
- GI50 [38]: > 100 µM
- TGI [38]: > 100 µM
- GI50 [39]: > 100 µM
- TGI [39]: > 100 µM
- GI50 [40]: > 100 µM
- TGI [40]: > 100 µM
- GI50 [41]: > 100 µM
- TGI [41]: > 100 µM
- GI50 [42]: > 100 µM
- TGI [42]: > 100 µM
- GI50 [43]: > 100 µM
- TGI [43]: > 100 µM
- GI50 [44]: > 100 µM
- TGI [44]: > 100 µM
- GI50 [45]: > 100 µM
- TGI [45]: > 100 µM
- GI50 [46]: > 100 µM
- TGI [46]: > 100 µM
- GI50 [47]: > 100 µM
- TGI [47]: > 100 µM
- GI50 [48]: > 100 µM
- TGI [48]: > 100 µM
- GI50 [49]: > 100 µM
- TGI [49]: > 100 µM
- GI50 [50]: > 100 µM
- TGI [50]: > 100 µM
- GI50 [51]: > 100 µM
- TGI [51]: > 100 µM
- GI50 [52]: > 100 µM
- TGI [52]: > 100 µM
- GI50 [53]: > 100 µM
- TGI [53]: > 100 µM
- GI50 [54]: > 100 µM
- TGI [54]: > 100 µM
- GI50 [55]: > 100 µM
- TGI [55]: > 100 µM
- GI50 [56]: > 100 µM
- TGI [56]: > 100 µM
